Key:
Assay in all cases: relative viability (nuclei count vs DMSO), 5 days (fraction); higher = more cells survive
NCI-H2087 = system: NCI-H2087
Outline: (§1)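 Relative viability divides the nuclei count in treated wells by that in vehicle wells. Lung cancer cell lines were seeded in 1536-well plates, dosed by pin tool the next day, and fixed and stained after 5 days in one step with final 0.05% Triton X-100, 1% formaldehyde and 1 ug/ml Hoechst. Dosing was a single drug or a fixed anchor-drug dose plus five library-drug doses (not always all listed) in √10 steps, and values are medians of duplicate plates imaged at 4×.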

NCI-H1793 = system: NCI-H1793
Outline: as §1

PC-3 [JPC-3] = system: PC-3 [JPC-3]
Outline: as §1

NCI-H1651 = system: NCI-H1651
Outline: as §1

HCC-366 = system: HCC-366
Outline: as §1

NCI-H1395 = system: NCI-H1395
Outline: as §1

ABC-1 = system: ABC-1
Outline: as §1

NCI-H2405 = system: NCI-H2405
Outline: as §1

NCI-H2228 = system: NCI-H2228
Outline: as §1

LU99A = system: LU99A
Outline: as §1

HCC-78 = system: HCC-78
Outline: as §1

LOU-NH91 = system: LOU-NH91
Outline: as §1

NCI-H3122 = system: NCI-H3122
Outline: as §1

NCI-H1944 = system: NCI-H1944
Outline: as §1

UMC-11 = system: UMC-11
Outline: as §1

CAL-12T = system: CAL-12T
Outline: as §1

RERF-LC-KJ = system: RERF-LC-KJ
Outline: as §1

NCI-H460 = system: NCI-H460
Outline: as §1

LC-2-ad = system: LC-2-ad
Outline: as §1

NCI-H1755 = system: NCI-H1755
Outline: as §1

For `O=c1cc(-c2cccc3c2Sc2ccccc2S3)oc(N2CCOCC2)c1` + C[C@]1(O)C[C@@H](c2nc(-c3ccc4ccc(-c5ccccc5)nc4c3)c3c(N)nccn32)C1 [Linsitinib] (partner 1 µM), the relative viability (NCI-H2087; first compound 0.08 µM) was 1.1, the relative viability (NCI-H2087; first compound 0.253 µM) was 1.03 and the relative viability (NCI-H2087; first compound 0.8 µM) was 0.927. The relative viability (NCI-H2087; first compound 2.53 µM) was 0.952, the relative viability (NCI-H2087; first compound 8 µM) was 1.01 and the relative viability (NCI-H1793; first compound 0.08 µM) was 0.674. The relative viability (NCI-H1793; first compound 0.253 µM) was 1.19, the relative viability (NCI-H1793; first compound 0.8 µM) was 0.992 and the relative viability (NCI-H1793; first compound 2.53 µM) was 0.821. The relative viability (NCI-H1793; first compound 8 µM) was 0.919, the relative viability (PC-3 [JPC-3]; first compound 0.08 µM) was 1.02 and the relative viability (PC-3 [JPC-3]; first compound 0.253 µM) was 1.03. For the same compound, the relative viability (PC-3 [JPC-3]; first compound 0.8 µM) was 0.992, the relative viability (PC-3 [JPC-3]; first compound 2.53 µM) was 0.972 and the relative viability (PC-3 [JPC-3]; first compound 8 µM) was 0.91. The relative viability (NCI-H1651; first compound 0.08 µM) was 1.06, the relative viability (NCI-H1651; first compound 0.253 µM) was 1.2 and the relative viability (NCI-H1651; first compound 0.8 µM) was 0.954. The relative viability (NCI-H1651; first compound 2.53 µM) was 0.879, the relative viability (NCI-H1651; first compound 8 µM) was 0.865 and the relative viability (HCC-366; first compound 0.08 µM) was 0.605. For the same compound, the relative viability (HCC-366; first compound 0.253 µM) was 1.07, the relative viability (HCC-366; first compound 0.8 µM) was 0.711 and the relative viability (HCC-366; first compound 2.53 µM) was 0.744. It also gave a relative viability (HCC-366; first compound 8 µM) of 0.573, a relative viability (NCI-H1395; first compound 0.08 µM) of 1.25 and a relative viability (NCI-H1395; first compound 0.253 µM) of 1.06. It also gave a relative viability (NCI-H1395; first compound 0.8 µM) of 1.26, a relative viability (NCI-H1395; first compound 2.53 µM) of 0.941 and a relative viability (NCI-H1395; first compound 8 µM) of 1.07. For the same compound, the relative viability (ABC-1; first compound 0.08 µM) was 0.627, the relative viability (ABC-1; first compound 0.253 µM) was 1.02 and the relative viability (ABC-1; first compound 0.8 µM) was 0.717. The relative viability (ABC-1; first compound 2.53 µM) was 0.711, the relative viability (ABC-1; first compound 8 µM) was 0.954 and the relative viability (NCI-H2405; first compound 0.08 µM) was 0.878. It also gave a relative viability (NCI-H2405; first compound 0.253 µM) of 0.924, a relative viability (NCI-H2405; first compound 0.8 µM) of 0.85 and a relative viability (NCI-H2405; first compound 2.53 µM) of 0.822. The relative viability (NCI-H2405; first compound 8 µM) was 0.768, the relative viability (NCI-H2228; first compound 0.08 µM) was 0.545 and the relative viability (NCI-H2228; first compound 0.253 µM) was 0.588. The relative viability (NCI-H2228; first compound 0.8 µM) was 0.826, the relative viability (NCI-H2228; first compound 2.53 µM) was 0.592 and the relative viability (NCI-H2228; first compound 8 µM) was 0.63. It also gave a relative viability (LU99A; first compound 0.08 µM) of 0.58, a relative viability (LU99A; first compound 0.253 µM) of 0.582 and a relative viability (LU99A; first compound 0.8 µM) of 0.631. It also gave a relative viability (LU99A; first compound 2.53 µM) of 0.544, a relative viability (LU99A; first compound 8 µM) of 0.608 and a relative viability (HCC-78; first compound 0.08 µM) of 0.561. It also gave a relative viability (HCC-78; first compound 0.253 µM) of 0.746, a relative viability (HCC-78; first compound 0.8 µM) of 0.41 and a relative viability (HCC-78; first compound 2.53 µM) of 0.457. It also gave a relative viability (HCC-78; first compound 8 µM) of 0.575, a relative viability (LOU-NH91; first compound 0.08 µM) of 0.946 and a relative viability (LOU-NH91; first compound 0.253 µM) of 0.923. It also gave a relative viability (LOU-NH91; first compound 0.8 µM) of 0.845, a relative viability (LOU-NH91; first compound 2.53 µM) of 0.769 and a relative viability (LOU-NH91; first compound 8 µM) of 0.893. It also gave a relative viability (NCI-H3122; first compound 0.08 µM) of 1.07, a relative viability (NCI-H3122; first compound 0.253 µM) of 1.16 and a relative viability (NCI-H3122; first compound 0.8 µM) of 1.06. It also gave a relative viability (NCI-H3122; first compound 2.53 µM) of 0.99, a relative viability (NCI-H3122; first compound 8 µM) of 1.07 and a relative viability (NCI-H1944; first compound 0.08 µM) of 1.04. For the same compound, the relative viability (NCI-H1944; first compound 0.253 µM) was 1.26, the relative viability (NCI-H1944; first compound 0.8 µM) was 1.23 and the relative viability (NCI-H1944; first compound 8 µM) was 1.18. The relative viability (UMC-11; first compound 0.08 µM) was 1.16, the relative viability (UMC-11; first compound 0.253 µM) was 1.17 and the relative viability (UMC-11; first compound 0.8 µM) was 1.18. For the same compound, the relative viability (UMC-11; first compound 2.53 µM) was 1.06, the relative viability (UMC-11; first compound 8 µM) was 1.23 and the relative viability (CAL-12T; first compound 0.08 µM) was 0.73. The relative viability (CAL-12T; first compound 0.253 µM) was 0.861, the relative viability (CAL-12T; first compound 0.8 µM) was 0.899 and the relative viability (CAL-12T; first compound 2.53 µM) was 0.77. It also gave a relative viability (CAL-12T; first compound 8 µM) of 0.503, a relative viability (RERF-LC-KJ; first compound 0.08 µM) of 0.865 and a relative viability (RERF-LC-KJ; first compound 0.253 µM) of 0.939. For the same compound, the relative viability (RERF-LC-KJ; first compound 0.8 µM) was 0.85, the relative viability (RERF-LC-KJ; first compound 2.53 µM) was 1.01 and the relative viability (RERF-LC-KJ; first compound 8 µM) was 0.763. For the same compound, the relative viability (NCI-H460; first compound 0.08 µM) was 0.991, the relative viability (NCI-H460; first compound 0.253 µM) was 0.997 and the relative viability (NCI-H460; first compound 0.8 µM) was 1.08. The relative viability (NCI-H460; first compound 2.53 µM) was 0.796, the relative viability (NCI-H460; first compound 8 µM) was 0.791 and the relative viability (LC-2-ad; first compound 0.08 µM) was 0.79. For the same compound, the relative viability (LC-2-ad; first compound 0.253 µM) was 0.967, the relative viability (LC-2-ad; first compound 0.8 µM) was 0.828 and the relative viability (LC-2-ad; first compound 2.53 µM) was 0.749. The relative viability (LC-2-ad; first compound 8 µM) was 0.802, the relative viability (NCI-H1755; first compound 0.08 µM) was 1.03 and the relative viability (NCI-H1755; first compound 0.253 µM) was 1.1. The relative viability (NCI-H1755; first compound 0.8 µM) was 0.978, the relative viability (NCI-H1755; first compound 2.53 µM) was 1.02 and the relative viability (NCI-H1755; first compound 8 µM) was 0.936.

— the supplement of paper PMC10307832
